The values below come from patent EP1370276B1, “INTERCELLULAR COMMUNICATION FACILITATING COMPOUNDS AND THEIR MEDICAL USE” (Zealand Pharma A/S, priority 2001, dated 2002).

For assay [1], the system named is phosphoinositol turnover in rat primary cardiomyocytes. The experiment in a line: Phosphoinositol turnover in primary cardiomyocyte cultures. The format is cell-based. Particulars: for EC50: enhancement of phospho-inositol turnover. Here is the method: Neonatal Wistar rats (1-2 days old) are used. Hank's calcium- and magnesium-free balanced salt solution, buffered with 10 mM HEPES is used for washing during cell separation procedures. The hearts are excised, the ventricles isolated and the tissue cut into small pieces. The myocardial cells are isolated by stepwise enzymatic degradation with collagenase 0.05%, as described by ^[35]. After repeated rounds of centrifugation and washing, the precipitated cells are resuspended in culture medium M199 with Earle's salt, 10% NCS, penicillin (75 U/mL), and streptomycin (75 U/mL) and pre-plated in a Petri dish for 90 minutes. The non-adherent cells are collected in the culture medium and plated in multidishes at 2.5*10^5 cells/well. The cultures are kept in a water-saturated CO2-incubator at 37°C. The cardiomyocyte cultures are used for analyses after 6-7 days.
Cardiomyocyte cultures are incubated for 48 hours in culture medium containing 4 µCi/mL myo-[2-^3H]inositol to label the inositol phospholipids. On the day of analysis the medium is replaced by a buffer solution containing lithium and incubated at 37°C, as described by Meier et al. ^[36]. After at least five minutes this buffer is replaced by the same volume of buffer containing test compound and incubated for exactly 20 minutes. The reaction is stopped by rapid replacement of the buffer by ice cold 4%v/v perchloric acid (PCA) and incubation for at least 20 minutes at 0°C. The PCA-extract is neutralised and the [^3H]inosltol phosphates are separated by anion-exchange chromatography using Amprep™ columns containing 100 mg SAX Quaternary amine. The [^3H]inositol mono-phosphates are eluted and radioactivity in the fraction measured by liquid scintillation counting.
Before adding test substances to the cultures, the cells are depleted of glucose and oxygen by incubating them in a N2-atmosphere in glucose-free lithium-buffer for 10 minutes at 37°C. Control cells are incubated likewise only at normal atmospheric conditions and in a buffer containing glucose.

Assay [2] relates to ROS 17/2.8 cells. Description: Intercellular calcium waves after mechanical stimulation, ROS 17/2.8 cells. The format is cell-based, rat. The settings on record: 10^-8 M, 10 minutes, after 48 hours hypoxia 3-6% O2 (2.2 cells before). Here is the method: ROS 17/2.8 cells: Cells were cultured in 100 mm dishes at 37°C with 5% CO2 and medium change every 2-3 days. ROS medium (all reagents obtained from Life Technologies): MEM (Cat.No. 31095) supplemented with 10% heat-inactivated calf serum (Cat.No. 16170), 1% NEAA (Cat.No. 11140), 1% Sodium Pyruvate (Cat.No. 11360), 1% L-Glutamine (Cat.No. 25030) and 0.1% Penicillin/Streptomycin (Cat.No. 15140). For video imaging experiments, cells were plated on coverslips at 2-3×10^5 cells/coverslip and cultured for 2-3 days before use.
The cells cultured on coverslips were loaded with 5 µM fura-2-AM (Molecular Probes, Cat.No. F-1221), for 30 minutes at 37°C, and incubated in fresh medium for 20 minutes. Coverslips were then affixed to a PDMI-2 culture chamber (Medical Systems Corp.), maintained at 37°C with superfused CO2, on a Zeiss Axiovert microscope. Intercellular calcium waves were induced by mechanical stimulation of a single cell using a borosilicate glass micro pipette affixed to an Eppendorf 5171 micromanipulator. Imaging was performed using a MetaMorph imaging system (Universal Imaging). The excitation light (340 and 380 nm) was provided by a monochromator (T.I.L.L. Photonics GmbH). Images were acquired with an intensified CCD camera (Dage MTI) and digitized with a Matrox MVP image processing board.

Assay [3] deals with phosphoinositol turnover in rat primary cardiomyocytes. The settings on record: oxygen and glucose deprivation (untreated app. 50%); conference abstract; cited from earlier work.
For assay [4], the system named is ventricular reentry arrhytmias. The experiment in a line: Ventricular reentry arrhythmias in dogs after coronary artery occlusion. The format is in vivo. The settings on record: after the lowest i.v. dose (bolus: 0.1 µg/kg; infusion: 2 ng/kg/min), after CAO.
Method: Three dogs were studied in the anesthetized, open chest state to facilitate electrode placement for mapping. α-chloralose was given as a bolus (200 mg/kg) and then a constant Infusion at 8 mg/kg/hr (dissolved in polyethylene glycol, MW=200). The femoral vein and artery was cannulated for administration of fluid and drugs and for measurement of ascending aortic pressure, respectively.
The sinus node was clamped and the atrial appendage was paced with a programmable stimulator with constant current outputs at two times diastolic threshold. Pacing rate was ≥200 b/min to control heart rates. […] Late ventricular diastolic threshold was measured during each intervention; the pacing current was four times threshold.
Test sites were chosen along the shaft of 16 pole needles (J. Kassell, Fayetteville, NC); each pole completely surrounds the needle shaft to prevent directionality of needle orientation from recording of adjacent Purkinje strands. Six bipolar electrograms (1 mm spacing) were recorded sequentially down the shaft of the needle by amplifying up to 1000 times, filtering from 3-1300 Hz and recording via oscilloscope during atrial pacing. Four intramural electrograms are recorded on each multipolar needle. […] Inter-needle distance measured on epicardium varies over 6-10 mm in dogs weighing 12-16 kg. […]
The subject of assay [5] is cAMP formation in CHO cells. The experiment in a line: Inhibition of forskoline stimulated cAMP formation in CHO cells. Format: cell-based. Particulars: 10 µM forskoline, 20 min, cells pre-treated with glucose and oxygen deprivation. As for the experimental part: CHO cells are seeded in 96-well microtiter plates in a density of 6,000 cells/cm^2 (∼ 2,000 cells/well) and grown for 4 days in vitro in 200 µl/well of growth media as described in the previous section.
On the day of analysis cells are removed from the incubator and washed twice with 200 µl pre-warmed (37°C) D-PBS (pH 7.2) to remove serum. Cells are incubated for 10 min in glucose free D-PBS and an N2-atmosphere as described in the previous section.
CHO cells are incubated at 37° C in D-PBS (pH 7.2) containing 6 mM glucose, 2.0 mM IBMX (phospodiesterase blocker), 10 µM forskoline (stimulates cAMP formation) and increasing concentrations of test peptide. The reaction is stopped after 20 min by addition of 20 µl 0.5 M HCl and left for at least 20 min at room temperature.
The content of cAMP is analysed by mixing 20 µl of the acid cell extract into FlashPlate™ wells (NEN assay kit SMP001) containing 180 µl [^12SI]cAMP tracer solution. FlashPlates™ are incubated overnight at 4° C and plate bound radioactivity counted in TopCount (Packard Instrument). Data are calculated as described in the previous section.
A general note: cAMP levels reflect the balance of adenylyl cyclase and phosphodiesterase activity.

The EC50 is the concentration giving half of the maximal effect. Consider “Ac-D-Tyr-D-Pro-D-4Hyp-Gly-D-Ala-Gly-NH2 [Compound 2]”, for which the “increase in phospho-inositol turnover compared with noradrenaline alone” value in assay [1] (100 nM + noradrenaline (300 nM), anoxia and glucose deprivation) is “about 70%”. The “effect on noradrenaline (300 nM) induced increase in phospho-inositol turnover” value in assay [1] (100 nM, control conditions) is listed as “had no further effect”. For the same substance, the EC50 in assay [1] (Glucose and oxygen deprivation) was determined as 10 nM; in assay [1] (Normal conditions) it was 10 nM; in assay [5], 6.2 nM. Moreover, the “average number of cells in the calcium wave” value in assay [2] came out at 5.4 cells. The “noradrenalin-induced PI turnover, % of the normal level” value in assay [3] is ~90%. Besides, the “inducibility of epicardial reentry VT” value in assay [4] was “VT was no longer inducible”.
